Data from ChEMBL document CHEMBL3045618, “Effect of seven new orchard pesticides on Galendromus occidentalis in laboratory studies” (2009).

Legend:
[1] = system: Galendromus occidentalis; assay: Toxicity against Metaseiulus occidentalis adults in bean leaf disk infested with two-spotted spider mites assessed as repellency at 0.1167 g AI/L treated using worst-case laboratory exposure procedure measured after 72 hr (reference value: 16.1%); type: functional
[2] = system: Galendromus occidentalis; assay: Toxicity against Metaseiulus occidentalis adults in bean leaf disk infested with two-spotted spider mites assessed as repellency at 0.1167 g AI/L treated using worst-case laboratory exposure procedure measured after 48 hr (reference value: 13.6%); type: functional
[3] = system: Galendromus occidentalis; assay: Toxicity against Metaseiulus occidentalis adults in bean leaf disk infested with two-spotted spider mites assessed as repellency at 0.1167 g AI/L treated using worst-case laboratory exposure procedure measured after 24 hr (reference value: 3.6%); type: functional
[4] = system: Galendromus occidentalis; assay: Toxicity against Metaseiulus occidentalis adults in bean leaf disk infested with two-spotted spider mites assessed as average number of eggs laid (fecundity)at 0.1167 g AI/L treated using worst-case laboratory exposure procedure measured after 72 hr (reference value: 2.23/day); type: functional
[5] = system: Galendromus occidentalis; assay: Toxicity against Metaseiulus occidentalis adults in bean leaf disk infested with two-spotted spider mites assessed as corrected mortality at 0.1167 g AI/L treated using worst-case laboratory exposure procedure measured after 72 hr; type: functional
[6] = system: Galendromus occidentalis; assay: Toxicity against Metaseiulus occidentalis adults in bean leaf disk infested with two-spotted spider mites assessed as corrected mortality at 2x0.1167 g AI/L treated using worst-case laboratory exposure procedure measured after 72 hr; type: functional
[7] = system: Galendromus occidentalis; assay: Toxicity against Metaseiulus occidentalis adults in bean leaf disk infested with two-spotted spider mites assessed as average number of eggs laid (fecundity) at 0.1167 g AI/L treated using worst-case laboratory exposure procedure measured after 48 hr (reference value: 2.30/day); type: functional
[8] = system: Galendromus occidentalis; assay: Toxicity against Metaseiulus occidentalis adults in bean leaf disk infested with two-spotted spider mites assessed as average number of eggs laid (fecundity) at 0.1167 g AI/L treated using worst-case laboratory exposure procedure measured after 24 hr (reference value: 2.11/day); type: functional
[9] = system: Galendromus occidentalis; assay: Toxicity against Metaseiulus occidentalis adults in bean leaf disk infested with two-spotted spider mites assessed as corrected mortality at 0.1167/128 g AI/L treated using worst-case laboratory exposure procedure measured after 72 hr; type: functional
[10] = system: Galendromus occidentalis; assay: Toxicity against Metaseiulus occidentalis adults in bean leaf disk infested with two-spotted spider mites assessed as corrected mortality at 0.1167/46 g AI/L treated using worst-case laboratory exposure procedure measured after 72 hr; type: functional
[11] = system: Galendromus occidentalis; assay: Toxicity against Metaseiulus occidentalis adults in bean leaf disk infested with two-spotted spider mites assessed as corrected mortality at 0.1167/8 g AI/L treated using worst-case laboratory exposure procedure measured after 72 hr; type: functional
[12] = system: Galendromus occidentalis; assay: Toxicity against Metaseiulus occidentalis adults in bean leaf disk infested with two-spotted spider mites assessed as corrected mortality at 4x0.1167 g AI/L treated using worst-case laboratory exposure procedure measured after 72 hr; type: functional
[13] = system: Galendromus occidentalis; assay: Toxicity against Metaseiulus occidentalis adults in bean leaf disk infested with two-spotted spider mites assessed as mortality treated using worst-case laboratory exposure procedure measured after 72 hr; type: functional
[14] = system: Galendromus occidentalis; assay: Ovicidal activity against Metaseiulus occidentalis eggs in bean leaf disk infested with two-spotted spider mites assessed as corrected cumulative mortality at 700 g/kg WP formulation treated using worst-case laboratory exposure procedure measured after 144 hr (reference value: 0.7%); type: functional
[15] = system: Amblyseius andersoni; assay: Toxicity against Amblyseius andersoni in hop fields assessed as mortality; type: functional
[16] = system: Galendromus occidentalis; assay: Toxicity against Metaseiulus occidentalis adults in bean leaf disk infested with two-spotted spider mites assessed as repellency at 0.1600 g AI/L treated using worst-case laboratory exposure procedure measured after 72 hr (reference value: 16.1%); type: functional
[17] = system: Galendromus occidentalis; assay: Toxicity against Metaseiulus occidentalis adults in bean leaf disk infested with two-spotted spider mites assessed as repellency at 0.1600 g AI/L treated using worst-case laboratory exposure procedure measured after 48 hr (reference value: 13.6%); type: functional
[18] = system: Galendromus occidentalis; assay: Toxicity against Metaseiulus occidentalis in hop fields assessed as mortality; type: functional
[19] = system: Neoseiulus fallacis; assay: Toxicity against Neoseiulus fallacis in hop fields assessed as mortality; type: functional, Garman
[20] = system: Galendromus occidentalis; assay: Toxicity against Metaseiulus occidentalis adults in bean leaf disk infested with two-spotted spider mites assessed as repellency at 0.1600 g AI/L treated using worst-case laboratory exposure procedure measured after 24 hr (reference value: 3.6%); type: functional
[21] = system: Galendromus occidentalis; assay: Toxicity against Metaseiulus occidentalis adults in bean leaf disk infested with two-spotted spider mites assessed as average number of eggs laid (fecundity) at 0.1600 g AI/L treated using worst-case laboratory exposure procedure measured after 72 hr (reference value: 2.23/day); type: functional
[22] = system: Galendromus occidentalis; assay: Toxicity against Metaseiulus occidentalis adults in bean leaf disk infested with two-spotted spider mites assessed as corrected mortality at 0.1600/8 g AI/L treated using worst-case laboratory exposure procedure measured after 72 hr; type: functional
[23] = system: Galendromus occidentalis; assay: Toxicity against Metaseiulus occidentalis adults in bean leaf disk infested with two-spotted spider mites assessed as corrected mortality at 0.1600/2 g AI/L treated using worst-case laboratory exposure procedure measured after 72 hr; type: functional
[24] = system: Galendromus occidentalis; assay: Toxicity against Metaseiulus occidentalis adults in bean leaf disk infested with two-spotted spider mites assessed as corrected mortality at 0.1600 g AI/L treated using worst-case laboratory exposure procedure measured after 72 hr; type: functional
[25] = system: Galendromus occidentalis; assay: Toxicity against Metaseiulus occidentalis adults in bean leaf disk infested with two-spotted spider mites assessed as average number of eggs laid (fecundity) at 0.1600 g AI/L treated using worst-case laboratory exposure procedure measured after 48 hr (reference value: 2.30/day); type: functional
[26] = system: Galendromus occidentalis; assay: Toxicity against Metaseiulus occidentalis adults in bean leaf disk infested with two-spotted spider mites assessed as average number of eggs laid (fecundity) at 0.1600 g AI/L treated using worst-case laboratory exposure procedure measured after 24 hr (reference value: 2.11/day); type: functional
[27] = system: Galendromus occidentalis; assay: Toxicity against Metaseiulus occidentalis adults in bean leaf disk infested with two-spotted spider mites assessed as corrected mortality at 0.1600/32 g AI/L treated using worst-case laboratory exposure procedure measured after 72 hr; type: functional
[28] = system: Galendromus occidentalis; assay: Toxicity against Metaseiulus occidentalis adults in bean leaf disk infested with two-spotted spider mites assessed as corrected mortality at 0.1600/16 g AI/L treated using worst-case laboratory exposure procedure measured after 72 hr; type: functional
[29] = system: Galendromus occidentalis; assay: Ovicidal activity against Metaseiulus occidentalis eggs in bean leaf disk infested with two-spotted spider mites assessed as corrected cumulative mortality at 240 g/L SC formulation treated using worst-case laboratory exposure procedure measured after 144 hr (reference value: 0.7%); type: functional
[30] = system: Galendromus occidentalis; assay: Toxicity against Metaseiulus occidentalis adults in bean leaf disk infested with two-spotted spider mites assessed as repellency at 0.3767 g AI/L treated using worst-case laboratory exposure procedure measured after 48 hr (reference value: 13.6%); type: functional
[31] = system: Galendromus occidentalis; assay: Toxicity against Metaseiulus occidentalis adults in bean leaf disk infested with two-spotted spider mites assessed as repellency at 0.3767 g AI/L treated using worst-case laboratory exposure procedure measured after 24 hr (reference value: 3.6%); type: functional
[32] = system: Galendromus occidentalis; assay: Toxicity against Metaseiulus occidentalis adults in bean leaf disk infested with two-spotted spider mites assessed as repellency at 0.3767 g AI/L treated using worst-case laboratory exposure procedure measured after 72 hr (reference value: 16.1%); type: functional
[33] = system: Galendromus occidentalis; assay: Toxicity against Metaseiulus occidentalis adults in bean leaf disk infested with two-spotted spider mites assessed as average number of eggs laid (fecundity) at 0.3767 g AI/L treated using worst-case laboratory exposure procedure measured after 72 hr (reference value: 2.23/day); type: functional
[34] = system: Galendromus occidentalis; assay: Toxicity against Metaseiulus occidentalis adults in bean leaf disk infested with two-spotted spider mites assessed as corrected mortality at 0.3767 g AI/L treated using worst-case laboratory exposure procedure measured after 72 hr; type: functional
[35] = system: Galendromus occidentalis; assay: Toxicity against Metaseiulus occidentalis adults in bean leaf disk infested with two-spotted spider mites assessed as average number of eggs laid (fecundity) at 0.3767 g AI/L treated using worst-case laboratory exposure procedure measured after 48 hr (reference value: 2.30/day); type: functional
[36] = system: Galendromus occidentalis; assay: Toxicity against Metaseiulus occidentalis adults in bean leaf disk infested with two-spotted spider mites assessed as average number of eggs laid (fecundity) at 0.3767 g AI/L treated using worst-case laboratory exposure procedure measured after 24 hr (reference value: 2.11/day); type: functional

Molecule `C/C(=N\C#N)N(C)Cc1ccc(Cl)nc1` [ACETAMIPRID] has a Repellency [1] of 50%, a Repellency [2] of 41% and a Repellency [3] of 16%. It also gave an Activity [4] of 0 day⁻¹, a mortality [5] of 63.7% and a mortality [6] of 64.2%. For the same molecule, the Activity [7] was 0.13 day⁻¹, the Activity [8] was 1.3 day⁻¹ and the mortality [9] was 2.4%. It also gave a mortality [10] of 42.4%, a mortality [11] of 56.9% and a mortality [12] of 83.1%. It also gave an LC50 [13] of 0.021 gAi/L and a mortality [14] of 2%.

With `O=[N+]([O-])/N=C1\NCCN1Cc1ccc(Cl)nc1` [IMIDACLOPRID] the mortality [15] was 35.6%, the Repellency [16] was 53.8% and the Repellency [17] was 51.9%. The mortality [18] was 100%, the mortality [19] was 100% and the Repellency [20] was 16%. It also gave an Activity [21] of 1.3 day⁻¹, a mortality [22] of 59.4% and a mortality [23] of 84.2%. It also gave a mortality [24] of 97.4%, an Activity [25] of 1.54 day⁻¹ and an Activity [26] of 2.05 day⁻¹. For the same molecule, the mortality [27] was 16.8%, the mortality [28] was 34.4% and the LC50 [13] was 0.0156 gAi/L. The mortality at 240000 µg/mL (stock) [29] was 2.7%.

`COc1cccc(C(=O)NN(C(=O)c2cc(C)cc(C)c2)C(C)(C)C)c1C` [METHOXYFENOZIDE] was tested, and the Repellency [30] was 5.8%, the Repellency [31] was 3.8% and the Repellency [32] was 9%. It also gave an Activity [33] of 2.38 day⁻¹, a mortality [34] of 1.3% and an Activity [35] of 2.15 day⁻¹. It also gave an Activity [36] of 1.93 day⁻¹ and a mortality at 240000 µg/mL (stock) [29] of 3.1%.
